Source: patent publication US12344610B2, “APOL1 inhibitors and methods of use” (Maze Therapeutics, Inc., priority 2022, dated 2025)

Biological target: T1, APOL1 G2 (Homo sapiens, UniProt O14791, DEL388-389)
T1 construct: expressed in transfected cells; host or cells: HEK293 T-REx clonal line stably expressing GCaMP6f (HEK T-REx/GCaMP6f/APOL1 G2 K6.3), doxycycline induced
T1 sequence (O14791 with tags, fused parts or gaps DEL388-389): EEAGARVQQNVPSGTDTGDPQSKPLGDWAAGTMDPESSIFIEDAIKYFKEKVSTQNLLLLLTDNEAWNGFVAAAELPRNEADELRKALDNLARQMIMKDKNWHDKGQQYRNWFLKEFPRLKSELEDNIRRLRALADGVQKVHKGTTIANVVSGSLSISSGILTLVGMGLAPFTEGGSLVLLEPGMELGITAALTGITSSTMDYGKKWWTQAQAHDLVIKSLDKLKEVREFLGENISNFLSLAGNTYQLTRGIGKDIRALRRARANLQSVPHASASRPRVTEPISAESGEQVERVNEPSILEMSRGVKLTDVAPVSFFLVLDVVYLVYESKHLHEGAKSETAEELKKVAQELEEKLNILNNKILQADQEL
Experiment: APOL1-mediated calcium transport (calcium influx) assay, HEK T-REx/GCaMP6f/APOL1 G2 K6.3 cells, FLIPR TETRA
Type: cell-based
Settings: prevention of calcium influx; geometric mean of at least 2 assay runs; † = average of a technical replicate from a single assay run
How it was run: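 A HEK293 T-REx clone stably expressing GCaMP6f had APOL1 G2 induced with doxycycline (20 ng/mL solution added) for 6 h. Cells were then washed into Ca2+-free Tyrode's buffer (pH 7.4) and preincubated with compounds (duplicate 8-point) for 10 min at room temperature. Ca2+ injection to 5 mM final produced FLIPR GCaMP fluorescence, giving AC50 for influx inhibition (geometric mean, ≥2 runs).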

Question: `O=C1Nc2ccc(Cl)cc2C12CCN(CCOc1cnc3c(N4CC(O)C4)nccc3c1)CC2` [Compound 314, 5-chloro-1′-(2-{[8-(3-hydroxyazetidin-1-yl)-1,7-naphthyridin-3-yl]oxy}ethyl)-1,2-dihydrospiro[indole-3,4′-piperidin]-2-one] was tested. Which AC50 did it give?
Answer: 968 nM

Question: With `O=C(c1ccc(OCCN2CCC3(CC2)C(=O)Nc2ccc(Cl)cc23)cc1F)N1CCOCC1` [Compound 231, 5-chloro-1′-{2-[3-fluoro-4-(morpholine-4-carbonyl)phenoxy]ethyl}-1,2-dihydrospiro[indole-3,4′-piperidin]-2-one] as the compound, how does the AC50 read?
Answer: 1020 nM

Question: For `CN1C(=O)C2(CCN(CCOc3cc(F)c(C(=O)N4CCS(=O)(=O)CC4)c(F)c3)CC2)c2cc(C#N)ccc21` [Compound 260, 1′-{2-[4-(1,1-dioxo-1λ^6-thiomorpholine-4-carbonyl)-3,5-difluorophenoxy]ethyl}-1-methyl-2-oxo-1,2-dihydrospiro[indole-3,4′-piperidine]-5-carbonitrile], which AC50 is on record?
Answer: 1380 nM

Question: For `C[C@]1(O)C[C@H](N2C(=O)CCc3cc(OCCN4CCC5(CC4)C(=O)Nc4ccc(Cl)cc45)cnc32)C1` (single isomer, unassigned) [Compound 307, 5-chloro-1′-[2-({7-oxo-8-[(trans)-3-hydroxy-3-methylcyclobutyl]-5,6,7,8-tetrahydro-1,8-naphthyridin-3-yl}oxy)ethyl]-1,2-dihydrospiro[indole-3,4′-piperidin]-2-one], which AC50 is on record?
Answer: 320 nM

Question: With `O=C(c1ccc(OCCN2CCC3(CC2)C(=O)Nc2ccc(Cl)cc23)cc1F)N1CCS(=O)(=O)CC1` [Compound 232, 4-[4-(2-{5-chloro-2-oxo-1,2-dihydrospiro[indole-3,4′-piperidin]-1′-yl}ethoxy)-2-fluorobenzoyl]-1λ^6-thiomorpholine-1,1-dione] as the compound, how does the AC50 read?
Answer: 1010 nM

Question: For `CC1(O)CN(c2nccc3cc(OCCN4CCC5(CC4)C(=O)Nc4ccc(Cl)cc45)cnc23)C1` [Compound 306, 5-chloro-1′-(2-{[8-(3-hydroxy-3-methylazetidin-1-yl)-1,7-naphthyridin-3-yl]oxy}ethyl)-1,2-dihydrospiro[indole-3,4′-piperidin]-2-one], which AC50 is on record?
Answer: 1400 nM

Question: How did the AC50 turn out when `CC(O)c1ncc(OCCN2CCC3(CC2)C(=O)Nc2ccc(Cl)cc23)cc1C(F)(F)F` (single isomer, unassigned) [Compound 291, 5-chloro-1′-[2-({6-[(1R) or (1S)-1-hydroxyethyl]-5-(trifluoromethyl)pyridin-3-yl}oxy)ethyl]-1,2-dihydrospiro[indole-3,4′-piperidin]-2-one] was run?
Answer: 1190 nM

Question: How did the AC50 turn out when `CC1(O)CN(c2ncc(OCCN3CCC4(CC3)C(=O)Nc3ccc(Cl)cc34)cn2)C1` [Compound 300, 5-chloro-1′-(2-{[2-(3-hydroxy-3-methylazetidin-1-yl)pyrimidin-5-yl]oxy}ethyl)-1,2-dihydrospiro[indole-3,4′-piperidin]-2-one] was run?
Answer: 674 nM

Question: `CC(O)c1ncc(OCCN2CCC3(CC2)C(=O)Nc2ccc(Cl)cc23)cn1` (single isomer, unassigned) [Compound 286, 5-chloro-1′-[2-({2-[(1R) or (1S)-1-hydroxyethyl]pyrimidin-5-yl}oxy)ethyl]-1,2-dihydrospiro[indole-3,4′-piperidin]-2-one] was tested. Which AC50 did it give?
Answer: 917 nM

Question: `CC(C)(O)c1ncc(OCCN2CCC3(CC2)C(=O)Nc2ccc(Cl)cc23)cn1` [Compound 305, 5-chloro-1′-(2-{[2-(2-hydroxypropan-2-yl)pyrimidin-5-yl]oxy}ethyl)-1,2-dihydrospiro[indole-3,4′-piperidin]-2-one] was tested. Which AC50 did it give?
Answer: 649 nM

Question: For `CC(O)c1ncc(OCCN2CCC3(CC2)C(=O)Nc2ccc(Cl)cc23)cn1` (single isomer, unassigned) [Compound 285, 5-chloro-1′-[2-({2-[(1S) or (1R)-1-hydroxyethyl]pyrimidin-5-yl}oxy)ethyl]-1,2-dihydrospiro[indole-3,4′-piperidin]-2-one], which AC50 is on record?
Answer: 714 nM

Question: How did the AC50 turn out when `O=C(c1ccc(OCCN2CCC3(CC2)C(=O)Nc2ccc(Cl)cc23)cc1C(F)(F)F)N1CCS(=O)(=O)CC1` [Compound 272, 4-[4-(2-{5-chloro-2-oxo-1,2-dihydrospiro[indole-3,4′-piperidin]-1′-yl}ethoxy)-2-(trifluoromethyl)benzoyl]-1λ^6-thiomorpholine-1,1-dione] was run?
Answer: 921 nM

Question: Which AC50 does the source give for `O=C(c1ccc(OCCN2CCC3(CC2)C(=O)Nc2ccc(Cl)cc23)cc1F)N1CC(O)C1` [Compound 235, 5-chloro-1′-{2-[3-fluoro-4-(3-hydroxyazetidine-1-carbonyl)phenoxy]ethyl}-1,2-dihydrospiro[indole-3,4′-piperidin]-2-one] here?
Answer: 1000 nM

Question: `O=C1Nc2ccc(Cl)cc2C12CCN(CCOc1cnc(N3CC(O)C3)nc1)CC2` [Compound 301, 5-chloro-1′-(2-{[2-(3-hydroxyazetidin-1-yl)pyrimidin-5-yl]oxy}ethyl)-1,2-dihydrospiro[indole-3,4′-piperidin]-2-one] was tested. Which AC50 did it give?
Answer: 586 nM

Question: With `CC[C@]1(O)C[C@H](N2C(=O)CCc3cc(OCCN4CCC5(CC4)C(=O)Nc4ccc(Cl)cc45)cnc32)C1` (single isomer, unassigned) [Compound 290, 5-chloro-1′-[2-({7-oxo-8-[(trans)-3-ethyl-3-hydroxycyclobutyl]-5,6,7,8-tetrahydro-1,8-naphthyridin-3-yl}oxy)ethyl]-1,2-dihydrospiro[indole-3,4′-piperidin]-2-one] as the compound, how does the AC50 read?
Answer: 253 nM

Question: For `CS(=O)(=O)C1(c2ncc(OCCN3CCC4(CC3)C(=O)Nc3ccc(Cl)cc34)cn2)COC1` [Compound 276, 5-chloro-1′-(2-{[2-(3-methanesulfonyloxetan-3-yl)pyrimidin-5-yl]oxy}ethyl)-1,2-dihydrospiro[indole-3,4′-piperidin]-2-one], which AC50 is on record?
Answer: 1750 nM

Question: With `CS(=O)(=O)c1ccc(OCCN2CCC3(CC2)C(=O)Nc2ccc(Cl)cc23)cc1C(F)CF` (single isomer, unassigned) [Compound 219, 5-chloro-1′-(2-{3-[(1R or 1S)-1,2-difluoroethyl]-4-methanesulfonylphenoxy}ethyl)-1,2-dihydrospiro[indole-3,4′-piperidin]-2-one] as the compound, how does the AC50 read?
Answer: 835 nM

Question: With `N#Cc1ccc2c(c1)C1(CCN(CCOc3ccc(C(N)=O)c(F)c3)CC1)C(=O)N2` [Compound 238, 4-(2-{5-cyano-2-oxo-1,2-dihydrospiro[indole-3,4′-piperidin]-1′-yl}ethoxy)-2-fluorobenzamide] as the compound, how does the AC50 read?
Answer: 285 nM

Question: `CS(=O)(=O)N1CC2(CN(C(=O)c3ccc(OCCN4CCC5(CC4)C(=O)Nc4ccc(Cl)cc45)cc3F)C2)C1` [Compound 273, 5-chloro-1′-[2-(3-fluoro-4-{6-methanesulfonyl-2,6-diazaspiro[3.3]heptane-2-carbonyl}phenoxy)ethyl]-1,2-dihydrospiro[indole-3,4′-piperidin]-2-one] was tested. Which AC50 did it give?
Answer: 2100 nM

Question: With `CC(O)c1ncc(OCCN2CCC3(CC2)C(=O)Nc2ccc(C(F)F)cc23)cc1C(F)(F)F` (single isomer, unassigned) [Compound 287, 5-(difluoromethyl)-1′-[2-({6-[(1S) or (1R)-1-hydroxyethyl]-5-(trifluoromethyl)pyridin-3-yl}oxy)ethyl]-1,2-dihydrospiro[indole-3,4′-piperidin]-2-one] as the compound, how does the AC50 read?
Answer: 303 nM

Question: How did the AC50 turn out when `CC(=O)N(C)CCS(=O)(=O)c1ccc(OCCN2CCC3(CC2)C(=O)Nc2ccc(Cl)cc23)cc1` [Compound 193, N-{2-[4-(2-{5-chloro-2-oxo-1,2-dihydrosiro[indole-3,4′-piperidin]-1′-yl}ethoxy)benzenesulfonyl]ethyl}-N-methylacetamide] was run?
Answer: 1270 nM

Question: Which AC50 does the source give for `CC(O)c1ncc(OCCN2CCC3(CC2)C(=O)Nc2ccc(Cl)cc23)cn1` (stereo not drawn) [Compound 284, 5-chloro-1′-(2-{[2-(1-hydroxyethyl)pyrimidin-5-yl]oxy}ethyl)-1,2-dihydrospiro[indole-3,4′-piperidin]-2-one] here?
Answer: 756 nM

Question: With `COCCN1C(=O)C2(CCN(CCOc3ccc(S(C)(=O)=O)cc3)CC2)c2cc(C#N)ccc21` [Compound 25, 1′-[2-(4-methanesulfonylphenoxy)ethyl]-1-(2-methoxyethyl)-2-oxo-1,2-dihydrospiro[indole-3,4′-piperidine]-5-carbonitrile] as the compound, how does the AC50 read?
Answer: 651 nM

Question: With `CS(=O)(=O)c1ccc(OCCN2CCC3(CC2)C(=O)Nc2ccc(Cl)cc23)cc1C(F)CF` (single isomer, unassigned) [Compound 218, 5-chloro-1′-(2-{3-[(1S or 1R)-1,2-difluoroethyl]-4-methanesulfonylphenoxy}ethyl)-1,2-dihydrospiro[indole-3,4′-piperidin]-2-one] as the compound, how does the AC50 read?
Answer: 690 nM

Question: `CC(COc1ccc2c(c1)CCC(=O)N2C)N1CCC2(CC1)C(=O)Nc1ccc(Cl)cc12` (single isomer, unassigned) [Compound 200] was tested. Which AC50 did it give?
Answer: 1200 nM

Question: For `CN1C(=O)C2(CCN(CCOc3ccc(C4(S(C)(=O)=O)COC4)cc3)CC2)c2cc(C#N)ccc21` [Compound 251, 1′-{2-[4-(3-methanesulfonyloxetan-3-yl)phenoxy]ethyl}-1-methyl-2-oxo-1,2-dihydrospiro[indole-3,4′-piperidine]-5-carbonitrile], which AC50 is on record?
Answer: 546 nM

Question: How did the AC50 turn out when `O=C1Nc2ccc(Cl)cc2C12CCN(CCOc1ccc3c(c1)CCS3(=O)=O)CC2` [Compound 196, 5-(2-{5-chloro-2-oxo-1,2-dihydrospiro[indole-3,4′-piperidin]-1′-yl}ethoxy)-2,3-dihydro-1λ^6-benzothiophene-1,1-dione] was run?
Answer: 696 nM
